Experimental data from paper PMC11111408, “Concurrent inhibition of oncogenic and wild-type RAS-GTP for cancer therapy” (Nature, 2024).
Read-outs that look alike come from different tables or passages of the source.

Test system: panel of 183 cancer cell lines
Assay: Cell panel of 183 cancer cell lines, viability (CTG) at Crown Bioscience
Format: cell-based
Details: Homo sapiens
From the text: The panel consisted of cell lines with any substitution at position 12 of KRAS, NRAS or HRAS (KRAS(G12X), NRAS(G12X), HRAS(G12X)); substitutions in KRAS, NRAS or HRAS at any position other than 12, 13 and 61 (KRAS(other/VUS), NRAS(other/VUS), HRAS(other/VUS)); other oncogenic mutations in the RAS pathway (ABL1, ALK, ARAF, BRAF, CBL, EGFR, ERBB2, ERBB3, ERBB4, ERRFI1, FGFR1, FGFR2, FGFR3, FGFR4, FLT3, HRAS, IGF1R, JAK2, KIT, MAP2K1, MAP2K2, MAPK1, MET, NF1, NRAS, NTRK1, NTRK2, NTRK3, PDGFRA, PTPN11, RAC1, RAF1, RASA1, RET, RIT1, ROS1 and SOS1); and no oncogenic mutations in the RAS pathway. […] Cells were incubated for 120 h, and cell viability was determined using the CellTiter-Glo Luminescent Cell Viability Assay (CTG) (Promega, G7572) according to the manufacturer’s instructions.

## CCn1c(-c2cc(N3CCN(C4CC4)CC3)cnc2[C@H](C)OC)c2c3cc(ccc31)-c1csc(n1)C[C@H](NC(=O)[C@H]1[C@@H]3COC[C@@H]31)C(=O)N1CCC[C@H](N1)C(=O)OCC(C)(C)C2 [RMC-7977]
786-0, read-out: RMC-7977 EC50 (M), 786O, RAS pathway WT, Kidney
  EC50: > 1e-06 M
A 172, read-out: RMC-7977 EC50 (M), A172, RAS pathway WT, Brain&Nerves
  EC50: 1.19e-07 M
A549, read-out: RMC-7977 EC50 (M), A549, KRAS G12S, Lung
  EC50: 5.13e-09 M
A-375, read-out: RMC-7977 EC50 (M), A375, BRAF V600E, Skin
  EC50: > 1e-06 M
A-427, read-out: RMC-7977 EC50 (M), A427, KRAS G12D, Lung
  EC50: 4.79e-09 M
AN3-CA, read-out: RMC-7977 EC50 (M), AN3CA, RAS pathway WT, Uterus
  EC50: 2.87e-08 M
ASPC1, read-out: RMC-7977 EC50 (M), ASPC1, KRAS G12D, Pancreas
  EC50: 2.63e-09 M
AU565, read-out: RMC-7977 EC50 (M), AU565, RAS pathway WT, Breast
  EC50: > 1e-06 M
BRAF^MUT Other cell lines, read-out: median EC50
  EC50: 7.54e-08 M
BRAF^V600E cell lines, read-out: median EC50
  EC50: > 1e-06 M
BXPC-3, read-out: RMC-7977 EC50 (M), BXPC3, BRAF mut other, Pancreas
  EC50: 2.97e-08 M
CAL-51, read-out: RMC-7977 EC50 (M), CAL51, NRAS Y137H, Breast
  EC50: 2.88e-08 M
CAL-62, read-out: RMC-7977 EC50 (M), CAL62, KRAS G12R, HN/Thyroid
  EC50: 2.29e-09 M
CAPAN-1, read-out: G12X (62), RMC-7977 EC50 (CTG), CAPAN1, KRAS G12X
  EC50: 1.41e-09 M
CAPAN-1, read-out: RMC-7977 EC50 (M), CAPAN1, KRAS G12V, Pancreas
  EC50: 1.41e-09 M
CFPAC-1, read-out: G12X (62), RMC-7977 EC50 (CTG), CFPAC1, KRAS G12X
  EC50: 2.95e-09 M
CFPAC-1, read-out: RMC-7977 EC50 (M), CFPAC1, KRAS G12V, Pancreas
  EC50: 2.95e-09 M
CHL-1, read-out: RMC-7977 EC50 (M), CHL1, RAS pathway WT, Skin
  EC50: 2.61e-08 M
CHP-212, read-out: RMC-7977 EC50 (M), CHP212, NRAS Q61K, Brain&Nerves
  EC50: 1.58e-09 M
COLO 201, read-out: RMC-7977 EC50 (M), COLO201, BRAF V600E, Large intestine/Colorectum
  EC50: > 1e-06 M
COR-L23, read-out: G12X (62), RMC-7977 EC50 (CTG), CORL23, KRAS G12X
  EC50: 2.75e-09 M
COR-L23, read-out: RMC-7977 EC50 (M), CORL23, KRAS G12V, Lung
  EC50: 2.75e-09 M
Calu-1, read-out: RMC-7977 EC50 (M), CALU1, KRAS G12C, Lung
  EC50: 6.61e-10 M
Calu-6, read-out: RMC-7977 EC50 (M), CALU6, KRAS Q61K, Lung
  EC50: 1.86e-09 M
Capan-2, read-out: G12X (62), RMC-7977 EC50 (CTG), CAPAN2, KRAS G12X
  EC50: 3.31e-10 M
Capan-2, read-out: RMC-7977 EC50 (M), CAPAN2, KRAS G12V, Pancreas
  EC50: 3.31e-10 M
CoC1, read-out: RMC-7977 EC50 (M), COC1, KRAS G12D, Ovary
  EC50: 1.58e-09 M
DLD-1, read-out: RMC-7977 EC50 (M), DLD1, KRAS G13D, Large intestine/Colorectum
  EC50: 4.57e-08 M
DMS-53, read-out: RMC-7977 EC50 (M), DMS53, RAS pathway WT, Lung
  EC50: 7.15e-08 M
DMS-114, read-out: RMC-7977 EC50 (M), DMS114, RAS pathway WT, Lung
  EC50: 7.09e-07 M
DU-145, read-out: RMC-7977 EC50 (M), DU145, RAS pathway WT, Prostate
  EC50: 1.72e-08 M
DV-90, read-out: RMC-7977 EC50 (M), DV90, KRAS G13D, Lung
  EC50: 2.95e-08 M
EBC-1, read-out: RMC-7977 EC50 (M), EBC1, MET amp, Lung
  EC50: 1.13e-09 M
FTC-133, read-out: RMC-7977 EC50 (M), FTC133, NF1 LOF, HN/Thyroid
  EC50: > 1e-06 M
HCC44, read-out: RMC-7977 EC50 (M), HCC44, KRAS G12C, Lung
  EC50: 5.25e-09 M
HCC70, read-out: RMC-7977 EC50 (M), HCC70, RAS pathway WT, Breast
  EC50: > 1e-06 M
HCC78, read-out: RMC-7977 EC50 (M), HCC78, ROS1 fusion, Lung
  EC50: 7.49e-09 M
HCC827, HCC827, RTKMUT/fusion, read-out: EC50
  EC50: 3.03e-09 M
HCC827, read-out: RMC-7977 EC50 (M), HCC827, EGFR mut, Lung
  EC50: 3.03e-09 M
HCC1187, read-out: RMC-7977 EC50 (M), HCC1187, RAS pathway WT, Breast
  EC50: 2.7e-07 M
HCC1428, read-out: RMC-7977 EC50 (M), HCC1428, RAS pathway WT, Breast
  EC50: > 1e-06 M
HCC1500, read-out: RMC-7977 EC50 (M), HCC1500, RAS pathway WT, Breast
  EC50: 5.01e-08 M
HCC2279, RTKMUT/fusion, read-out: EC50
  EC50: 4.52e-09 M
HCC2935, read-out: RMC-7977 EC50 (M), HCC2935, EGFR mut, Lung
  EC50: 2.39e-09 M
HCC4006, HCC4006, RTKMUT/fusion, read-out: EC50
  EC50: 2.39e-09 M
HCC4006, read-out: RMC-7977 EC50 (M), HCC4006, EGFR mut, Lung
  EC50: 2.39e-09 M
HCT-8, read-out: RMC-7977 EC50 (M), HCT8, KRAS G13D, Large intestine/Colorectum
  EC50: 3.02e-08 M
HCT-15, read-out: RMC-7977 EC50 (M), HCT15, KRAS G13D, Large intestine/Colorectum
  EC50: 2.75e-07 M
HCT-116, read-out: RMC-7977 EC50 (M), HCT116, KRAS G13D, Large intestine/Colorectum
  EC50: 6.61e-09 M
HEC-1-A, read-out: RMC-7977 EC50 (M), HEC1A, KRAS G12D, Uterus
  EC50: 1.74e-09 M
HGC-27, read-out: RMC-7977 EC50 (M), HGC27, NF1 LOF, Stomach
  EC50: > 1e-06 M
HPAC, read-out: RMC-7977 EC50 (M), HPAC, KRAS G12D, Pancreas
  EC50: 1.1e-08 M
HPAF-II, read-out: RMC-7977 EC50 (M), HPAFII, KRAS G12D, Pancreas
  EC50: 3.24e-09 M
HT-1080, read-out: RMC-7977 EC50 (M), HT1080, NRAS Q61K, Soft tissue
  EC50: 2.34e-09 M
HepG2, read-out: RMC-7977 EC50 (M), HEPG2, NRAS Q61L, Liver
  EC50: 6.76e-09 M
Hs766T, read-out: RMC-7977 EC50 (M), HS766T, KRAS Q61H, Pancreas
  EC50: > 1e-06 M
Hs-578T, read-out: RMC-7977 EC50 (M), HS578T, HRAS G12D, Breast
  EC50: 1.45e-08 M
HuCCT-1, read-out: RMC-7977 EC50 (M), HUCCT1, KRAS G12D, Liver/Bile duct
  EC50: 5.13e-09 M
HuP-T4, read-out: RMC-7977 EC50 (M), HUPT4, KRAS G12V, Pancreas
  EC50: 2.51e-09 M
JHH7, read-out: RMC-7977 EC50 (M), JHH7, RAS pathway WT, Liver
  EC50: 8.08e-08 M
